Assay results published in US20250368635A1, “HETEROARYL DERIVATIVE COMPOUND, AND USES THEREOF” (VORONOI, INC., priority 2022, published 2025).

Each compound was assayed on Ba/F3 cells expressing EGFR Del19/C797S (EGFR DC) (assay: Inhibition of proliferation of Ba/F3 cells expressing EGFR Del19/C797S (CellTiter-Glo, 72 h)). Details: Mus musculus, BaF3, 72 hours treatment.
Type: cell-based
Protocol: The following experiment was performed to evaluate the inhibitory activity of the compounds according to the present invention on the proliferation of Ba/F3 cells expressing EGFR Del19/C797S (EGFR DC) and EGFR L858R/C797S (EGFR LC) mutations.
Ba/F3 cells were cultured using medium (RPMI-1640) containing 10% fetal bovine serum (FBS) and 5 ng/ml IL-3 (R&D Systems). The transduced Ba/F3 cells were cultured by adding 1 μg/ml puromycin (Invitrogen) to the same medium.
24 hours prior to treatment with compounds, 3,000 to 5,000 cells were seeded on a well plate (white clear bottom 96 well plate, Corning). The compounds were diluted in dimethyl sulfoxide (3-fold dilution, total of 12 concentrations) and injected at 1 μl each so that the final concentration was 0.2 nM to 5 μM. After 72 hours post treatment with compounds, living cells were stored at room temperature for 10 minutes using CellTiter-Glo luminescent cell-viability reagent (Promega), and the luminescence intensity thereof was measured using a reader (Synergy Neo, Biotek). Each test was repeated three times. The result values were calculated as a cell growth rate (%) compared to the control group. A graph was created using the GraphPad Prism version 8.3.0 program, and GI50 values were calculated.

Structure (SMILES) | GI50
Cn1cc(-c2cc(Nc3cc(N4OCC[C@@H]4c4cccc(F)c4F)ncn3)c3c(c2N2CCOCC2)OCCO3)cn1 [Example 96, (R)-6-(3-(2,3-difluorophenyl)isoxazolidin-2-yl)-N-(7-(1-methyl-1H-pyrazol-4-yl)-8-morpholino-2,3-dihydrobenzo[b][1,4]dioxin-5-yl)pyrimidin-4-amine] | 100 to 1000 nM
COc1cc2c(cc1Nc1cc(N3OCC[C@@H]3c3cccc(F)c3F)ncn1)-c1cnn(C)c1CCN2C(C)C [Example 47, (R)-N-(6-(3-(2,3-difluorophenyl)isoxazolidin-2-yl)pyrimidin-4-yl)-6-isopropyl-8-methoxy-3-methyl-3,4,5,6-tetrahydrobenzo[b]pyrazolo [4,3-d]azepin-9-amine] | 100 to 1000 nM
COc1cc(N2CC[C@@H](OC)[C@@H](F)C2)c(-c2cnn(C)c2)cc1Nc1cc(N2OCC[C@@H]2c2cccc(F)c2F)ncn1 [Example 66, 6-((R)-3-(2,3-difluorophenyl)isoxazolidin-2-yl)-N-(4-((3,4R)-3-fluoro-4-methoxypiperidin-1-yl)-2-methoxy-5-(1-methyl-1H-pyrazol-4-yl)phenyl)pyrimidin-4-amine] | 100 to 1000 nM
CC(C)Oc1cc(N2C[C@H](C)O[C@@H](C)C2)c(-c2cnn(C)c2)cc1Nc1cc(N2OCC[C@@H]2c2cccc(F)c2F)ncn1 [Example 105, 6-((R)-3-(2,3-difluorophenyl)isoxazolidin-2-yl)-N--(4-((2S,6S)-2,6-dimethylmorpholino)-2-isopropoxy-5-(1-methyl-1H-pyrazol-4-yl)phenyl)pyrimidin-4-amine] | 100 to 1000 nM
COc1cc(C23CCOCC2C3(F)F)c(-c2cnn(C)c2)cc1Nc1cc(N2OCC[C@@H]2c2cccc(F)c2F)ncn1 (stereo partly drawn) [Example 60, N-(4-(7,7-difluoro-3-oxabicyclo[4.1.0]heptan-6-yl)-2-methoxy-5-(1-methyl-1H-pyrazol-4-yl)phenyl)-6-((R)-3-(2,3-difluorophenyl)isoxazolidin-2-yl)pyrimidin-4-amine] | 100 to 1000 nM
COc1cc(N2CCC3(CC2)CCN(C(C)(C)CF)CC3)c(-c2cn(C)nc2F)cc1Nc1cc(N2OCC[C@@H]2c2ccccc2)ncn1 [Example 103, (R)-N-(5-(3-fluoro-1-methyl-1H-pyrazol-4-yl)-4-(9-(1-fluoro-2-methylpropan-2-yl)-3,9-diazaspiro[5.5]undecan-3-yl)-2-methoxyphenyl)-6-(3-phenylisoxazolidin-2-yl)pyrimidin-4-amine] | < 100 nM
COc1cc(N2CCN(C)CC2)c(-c2cnc3ccccc3c2)cc1Nc1cc(N2OCC[C@@H]2c2cccc(F)c2F)ncn1 [Example 78, (R)-6-(3-(2,3-difluorophenyl)isoxazolidin-2-yl)-N-(2-methoxy-4-(4-methylpiperazin-1-yl)-5-(quinolin-3-yl)phenyl)pyrimidin-4-amine] | 100 to 1000 nM
COc1cc(N2CCC3(CCC(OC)CC3)CC2)c(-c2cnn(C)c2)cc1Nc1cc(N2OCC[C@@H]2c2cccc(F)c2F)ncn1 [Example 42, (R)-6-(3-(2,3-difluorophenyl)isoxazolidin-2-yl)-N-(2-methoxy-4-(9-methoxy-3-azaspiro[5.5]undecan-3-yl)-5-(1-methyl-1H-pyrazol-4-yl)phenyl)pyrimidin-4-amine] | 100 to 1000 nM
COc1cc(N2CCC(CN3CCC(CC(F)(F)F)C3)CC2)c(-c2cnn(C)c2)cc1Nc1cc(N2OCC[C@@H]2c2cccc(F)c2F)ncn1 (stereo partly drawn) [Example 63, 6-((R)-3-(2,3-difluorophenyl)isoxazolidin-2-yl)-N-(2-methoxy-5-(1-methyl-1H-pyrazol-4-yl)-4-(4-((3-(2,2,2-trifluoroethyl)pyrrolidin-1-yl)methyl)piperidin-1-yl)phenyl)pyrimidin-4-amine] | < 100 nM
CCOc1cc(N2C[C@@H](C)O[C@@H](C)C2)c(-c2cnn(C)c2)cc1Nc1cc(N2OCC[C@@H]2c2cccc(F)c2F)ncn1 [Example 104, 6-((R)-3-(2,3-difluorophenyl)isoxazolidin-2-yl)-N-(4-((25,6R)-2,6-dimethylmorpholino)-2-ethoxy-5-(1-methyl-1H-pyrazol-4-yl)phenyl)pyrimidin-4-amine] | 100 to 1000 nM
COc1cc(N2CCC(N3CC[C@H](F)C3)CC2)c(-c2cnn(C)c2)cc1Nc1cc(N2OCC[C@@H]2c2cccc(F)c2F)ncn1 [Example 71, 6-((R)-3-(2,3-difluorophenyl)isoxazolidin-2-yl)-N-(4-(4-((S)-3-fluoropyrrolidin-1-yl)piperidin-1-yl)-2-methoxy-5-(1-methyl-1H-pyrazol-4-yl)phenyl)pyrimidin-4-amine] | 100 to 1000 nM
COc1cc(C23CCOCC2C3)c(-c2cnn(C)c2)cc1Nc1cc(N2OCC[C@@H]2c2cccc(F)c2F)ncn1 (stereo partly drawn) [Example 59, N-(4-(3-oxabicyclo[4.1.0]heptan-6-yl)-2-methoxy-5-(1-methyl-1H-pyrazol-4-yl)phenyl)-6-((R)-3-(2,3-difluorophenyl)isoxazolidin-2-yl)pyrimidin-4-amine] | 100 to 1000 nM
COc1cc(N2CCOCC2)c(-c2cn(C)nc2F)cc1Nc1cc(N2OCC[C@@H]2c2cccc(F)c2F)ncn1 [Example 16, (R)-6-(3-(2,3-difluorophenyl)isoxazolidin-2-yl)-N-(5-(3-fluoro-1-methyl-1H-pyrazol-4-yl)-2-methoxy-4-morpholinophenyl)pyrimidin-4-amine] | < 100 nM
COc1cc(N2CCN(C)CC2)c(-c2cnn(C3CC3)c2)cc1Nc1cc(N2OCC[C@@H]2c2cccc(F)c2F)ncn1 [Example 99, (R)-N-(5-(1-cyclopropyl-1H-pyrazol-4-yl)-2-methoxy-4-(4-methylpiperazin-1-yl)phenyl)-6-(3-(2,3-difluorophenyl)isoxazolidin-2-yl)pyrimidin-4-amine] | < 100 nM
COc1cc(N2CCN(C)CC2)c(-c2cnn(C)c2)cc1Nc1cc(N2OCC[C@@H]2c2cccc(F)c2F)ncn1 [Example 98, (R)-6-(3-(2,3-difluorophenyl)isoxazolidin-2-yl)-N-(2-methoxy-5-(1-methyl-N-pyrazol-4-yl)-4-(4-methylpiperazin-1-yl)phenyl)pyrimidin-4-amine] | < 100 nM
COc1cc(N2CCC3(CC2)CCN(C2COC2)CC3)c(-c2cnn(C)c2)cc1Nc1cc(N2OCC[C@@H]2c2cccc(F)c2F)ncn1 [Example 56, (R)-6-(3-(2,3-difluorophenyl)isoxazolidin-2-yl)-N-(2-methoxy-5-(1-methyl-1H-pyrazol-4-yl)-4-(9-(oxetan-3-yl)-3,9-diazaspiro[5.5]undecan-3-yl)phenyl)pyrimidin-4-amine] | < 100 nM
COc1cc(N2CCC(N3CCOCC3)CC2)c(-c2cnn(C)c2)cc1Nc1cc(N2OCC[C@@H]2c2cccc(F)c2F)ncn1 [Example 46, (R)-6-(3-(2,3-difluorophenyl)isoxazolidin-2-yl)-N-(2-methoxy-5-(1-methyl-1H-pyrazol-4-yl)-4-(4-morpholinopiperidin-1-yl)phenyl)pyrimidin-4-amine] | < 100 nM
COc1cc(N2CCC3(CCOCC3)C2)c(-c2cnn(C)c2)cc1Nc1cc(N2OCC[C@@H]2c2cccc(F)c2F)ncn1 [Example 45, (R)-6-(3-(2,3-difluorophenyl)isoxazolidin-2-yl)-N-(2-methoxy-5-(1-methyl-1H-pyrazol-4-yl)-4-(8-oxa-2-azaspiro[4.5]decan-2-yl)phenyl)pyrimidin-4-amine] | 100 to 1000 nM
COc1cc(N2CCO[C@H](C)C2)c(-c2cnn(C)c2)cc1Nc1cc(N2OCC[C@@H]2c2cccc(F)c2F)ncn1 [Example 108, 6-((R)-3-(2,3-difluorophenyl)isoxazolidin-2-yl)-N-(2-methoxy-5-(1-methyl-1H-pyrazol-4-yl)-4-((R)-2-methylmorpholino)phenyl)py-rimidin-4-amine] | 100 to 1000 nM
COc1cc(N2CC[C@H](OC)[C@H](F)C2)c(-c2cnn(C)c2)cc1Nc1cc(N2OCC[C@@H]2c2cccc(F)c2F)ncn1 [Example 67, 6-((R)-3-(2,3-difluorophenyl)isoxazolidin-2-yl)-N-(4-((3R,4S)-3-fluoro-4-methoxypiperidin-1-yl)-2-methoxy-5-(1-methyl-1H-pyrazol-4-yl)phenyl)pyrimidin-4-amine] | < 100 nM
COc1cc(N2CCSCC2)c(-c2cnn(C)c2)cc1Nc1cc(N2OCC[C@@H]2c2cccc(F)c2F)ncn1 [Example 85, (R)-6-(3-(2,3-difluorophenyl)isoxazolidin-2-yl)-N-(2-methoxy-5-(1-methyl-1H-pyrazol-4-yl)-4-thiomorpholinophenyl)pyri-midin-4-amine] | 100 to 1000 nM
COc1cc(N2CCC3(CC2)CN(C)CCO3)c(-c2cnn(C)c2)cc1Nc1cc(N2OCC[C@@H]2c2cccc(F)c2F)ncn1 [Example 83, (R)-6-(3-(2,3-difluorophenyl)isoxazolidin-2-yl)-N-(2-methoxy-5-(1-methyl-1H-pyrazol-4-yl)-4-(4-methyl-1-oxa-4,9-diazaspiro[5.5]undecan-9-yl)phenyl)pyrimidin-4-amine] | 100 to 1000 nM
COc1cc(N2CCC3CCN(C)C3C2)c(-c2cnn(C)c2)cc1Nc1cc(N2OCC[C@@H]2c2cccc(F)c2F)ncn1 (stereo partly drawn) [Example 62, 6-((R)-3-(2,3-difluorophenyl)isoxazolidin-2-yl)-N-(2-methoxy-5-(1-methyl-1H-pyrazol-4-yl)-4-(1-methyloctahydro-6H-pyrrolo[2,3-c]pyridin-6-yl)phenyl)pyrimidin-4-amine] | < 100 nM
